# B1: bintrafusp alfa: Bifunctional Fusion Protein Targeting TGF-β and PD-L1; CAS 1918149-01-5 (antibody, chains of the INN, looked up, V domains shown)
# VH: EVQLLESGGGLVQPGGSLRLSCAASGFTFSSYIMMWVRQAPGKGLEWVSSIYPSGGITFYADTVKGRFTISRDNSKNTLYLQMNSLRAEDTAVYYCARIKLGTVTTVDYWGQGTLVTVSS
# VL: QSALTQPASVSGSPGQSITISCTGTSSDVGGYNYVSWYQQHPGKAPKLMIYDVSNRPSGVSNRFSGSKSGNTASLTISGLQAEDEADYYCSSYTSSSTRVFGTGTKVTVL
# Tests used:
# [1] = tested on: DD tumor cells from 2 DDLPS PDX models; test: Ex vivo adipocytic differentiation of DD tumor cells from DDLPS PDX models; format: cell-based, human; conditions: ex vivo/in vitro, transcriptomic and phenotypic level
# Description: DDLPS tumor cells keep the multipotent properties of their progenitors. […] Adipocytic differentiation is confirmed with the detection of green vacuoles (Bodipy staining) and osteogenic differentiation by red staining after Alizarin red treatment (Data not shown).
# (§1) The inventors also investigated the role of TGFβ in adipocytic differentiation in DDLPS, particularly advanced DDLPS using several TGFβ inhibitors, of a different mode of action and of different nature, such as compounds selected from the group consisting of TGFβ receptor R1/R2 inhibitors LY2109761 and LY364947; monoclonal anti-TGFβ antibodies BX-BE0057 and fresolimumab; TGFβ ligand trap such as luspatercept (a fusion protein that traps TGFβ ligands preventing them from binding to Type II TGFβ receptors) and bintrafusp alfa (a Bifunctional Fusion Protein Targeting TGF-β and PD-L1) and TQB2858 (an anti-TGF-β/PD-L1 antibody).
# [2] = tested on: TGFβ pathway; test: Ex vivo inhibition of TGFβ pathway in DDLPS PDX Sil10AS; format: cell-based, human
# Description: Tests and assays for determining whether a compound is a TGFβ inhibitor are well known by the skilled person in the art such as described in Frey et al., 2022; Szymańska et al., 2020. Determining whether a compound is a TGFβ inhibitor may also be performed using by using recombinant TGFβ proteins, competitive binding assays and measuring the binding affinities, measuring activated TGF-β complexes with other factors to form a serine/threonine kinase complex that binds to TGF-β receptors. […] In another particular embodiment, a TGFβ inhibitor according to the invention is at least as effective as galunisertib and/or as SB431542 in reducing phosphorylation level of SMAD2 and/or SMAD3 protein. Antibodies and/or kits to detect and quantify said phosphorylation level are well known from the skilled in the art and are commercially available.
# as §1
# [3] = tested on: DDLPS PDX Sil10AS; test: Nude mice engrafted with DDLPS PDX Sil10AS: tumor growth and differentiation; format: in vivo
# Method: 7 nude mice engrafted with the DDLPS PDX Sil10AS are treated with TGFβ inhibitor galunisertib. The tumor growth rate is compared to a control group of 7 nude mice engrafted with the same PDX model and treated with a vehicle. At the end of the experiment, tumor differentiation are assessed at the microscopic and transcriptomic level.
Molecule,adipocytic differentiation of DD tumor cells [1],"inhibiting ex vivo TGFβ pathway, compared with galunisertib or SB431542 [2]","adipocytic differentiation of DD cells in treated PDX ([3]; DDLPS PDX in nude mice, assessed at the microscopic and transcriptomic level at end of experiment)","tumor growth ([3]; nude mice engrafted with DDLPS PDX Sil10AS, compared with vehicle group)"
TGFβ,prevented,–,–,–
fresolimumab: monoclonal anti-TGFβ antibody; CAS 948564-73-6,restore adipocytic differentiation phenotype,at least as effective than galunisertib or SB431542,–,–
Cc1cccc(-c2nn3c(c2-c2ccnc4ccc(C(N)=O)cc24)CCC3)n1 [galunisertib],restores adipocytic differentiation,–,restore adipocytic differentiation,reduce tumor growth
c1ccc(-c2nn3c(c2-c2ccnc4cc(OCCN5CCOCC5)ccc24)CCC3)nc1 [LY2109761],restore adipocytic differentiation phenotype,at least as effective than galunisertib or SB431542,–,–
c1ccc(-c2[nH]ncc2-c2ccnc3ccccc23)nc1 [LY364947],restore adipocytic differentiation phenotype,at least as effective than galunisertib or SB431542,–,–
NC(=O)c1ccc(-c2nc(-c3ccc4c(c3)OCO4)c(-c3ccccn3)[nH]2)cc1 [SB431542],restores adipocytic differentiation,–,–,–
B1,restore adipocytic differentiation phenotype,at least as effective than galunisertib or SB431542,–,–
